The structures appear in SMILES notation.

Four compounds from ChEMBL document CHEMBL5465560, “Selectivity Literature for EUbOPEN Chemogenomic Library” (2024) can be followed below.

Common to all, as to conditions: at 10 µM
Assay [1] has as its target T1, Ankyrin repeat and protein kinase domain-containing protein 1 (Homo sapiens) (UniProt Q8NFD2).
T1 sequence (whole entry): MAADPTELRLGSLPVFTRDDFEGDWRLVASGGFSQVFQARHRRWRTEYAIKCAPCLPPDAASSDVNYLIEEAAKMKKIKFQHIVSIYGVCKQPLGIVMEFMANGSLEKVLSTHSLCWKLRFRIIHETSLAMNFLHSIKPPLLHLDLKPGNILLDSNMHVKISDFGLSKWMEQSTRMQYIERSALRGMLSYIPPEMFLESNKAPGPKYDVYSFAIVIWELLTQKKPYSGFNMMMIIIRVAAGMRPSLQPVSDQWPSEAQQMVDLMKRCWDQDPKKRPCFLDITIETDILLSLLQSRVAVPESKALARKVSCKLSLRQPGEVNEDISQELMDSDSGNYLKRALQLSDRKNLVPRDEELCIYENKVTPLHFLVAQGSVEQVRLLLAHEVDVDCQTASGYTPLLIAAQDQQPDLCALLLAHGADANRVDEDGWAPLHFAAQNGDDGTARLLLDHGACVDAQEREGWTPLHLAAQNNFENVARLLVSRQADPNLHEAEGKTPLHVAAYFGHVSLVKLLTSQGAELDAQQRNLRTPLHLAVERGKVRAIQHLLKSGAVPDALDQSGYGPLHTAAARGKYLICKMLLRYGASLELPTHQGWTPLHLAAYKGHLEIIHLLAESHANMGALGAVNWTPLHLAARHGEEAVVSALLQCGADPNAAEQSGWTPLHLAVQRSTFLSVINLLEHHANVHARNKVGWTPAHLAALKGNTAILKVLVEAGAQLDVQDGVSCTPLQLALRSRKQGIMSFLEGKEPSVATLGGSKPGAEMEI

The target of assay [2] is T2, Inhibitor of nuclear factor kappa-B kinase subunit beta (Homo sapiens) (UniProt O14920).
T2 sequence (whole entry): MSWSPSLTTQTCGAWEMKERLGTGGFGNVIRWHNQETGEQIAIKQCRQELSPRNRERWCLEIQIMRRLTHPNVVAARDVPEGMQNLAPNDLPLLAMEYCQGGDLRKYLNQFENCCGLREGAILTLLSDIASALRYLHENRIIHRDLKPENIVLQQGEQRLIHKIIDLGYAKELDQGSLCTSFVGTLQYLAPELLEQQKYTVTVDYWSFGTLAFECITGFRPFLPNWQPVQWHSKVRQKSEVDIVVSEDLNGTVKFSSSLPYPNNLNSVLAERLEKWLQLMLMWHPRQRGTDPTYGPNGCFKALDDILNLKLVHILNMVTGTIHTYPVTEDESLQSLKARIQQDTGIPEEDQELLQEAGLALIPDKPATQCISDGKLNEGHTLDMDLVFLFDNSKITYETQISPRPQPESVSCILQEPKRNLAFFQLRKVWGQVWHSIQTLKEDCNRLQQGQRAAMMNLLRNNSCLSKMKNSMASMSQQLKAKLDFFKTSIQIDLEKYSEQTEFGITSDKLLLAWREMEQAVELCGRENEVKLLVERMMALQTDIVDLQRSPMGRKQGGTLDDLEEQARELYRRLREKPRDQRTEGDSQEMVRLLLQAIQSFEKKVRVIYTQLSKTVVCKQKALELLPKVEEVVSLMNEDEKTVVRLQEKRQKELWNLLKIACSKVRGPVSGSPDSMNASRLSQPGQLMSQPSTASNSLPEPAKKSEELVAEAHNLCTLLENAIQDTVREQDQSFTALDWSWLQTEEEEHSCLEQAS
Briefly: Selectivity interaction (KinomeScan (DiscoverX)) EUB0000666a IKBKB.

The target in assay [3] is Tyrosine-protein kinase Lyn (Homo sapiens, UniProt P07948). Briefly: Selectivity interaction (Kinase panel (Z-LYTE Assay)) EUB0001632a LYN.
In assay [4] the target is T3, Receptor-interacting serine/threonine-protein kinase 1 (Homo sapiens) (UniProt Q13546).
T3 sequence (whole entry): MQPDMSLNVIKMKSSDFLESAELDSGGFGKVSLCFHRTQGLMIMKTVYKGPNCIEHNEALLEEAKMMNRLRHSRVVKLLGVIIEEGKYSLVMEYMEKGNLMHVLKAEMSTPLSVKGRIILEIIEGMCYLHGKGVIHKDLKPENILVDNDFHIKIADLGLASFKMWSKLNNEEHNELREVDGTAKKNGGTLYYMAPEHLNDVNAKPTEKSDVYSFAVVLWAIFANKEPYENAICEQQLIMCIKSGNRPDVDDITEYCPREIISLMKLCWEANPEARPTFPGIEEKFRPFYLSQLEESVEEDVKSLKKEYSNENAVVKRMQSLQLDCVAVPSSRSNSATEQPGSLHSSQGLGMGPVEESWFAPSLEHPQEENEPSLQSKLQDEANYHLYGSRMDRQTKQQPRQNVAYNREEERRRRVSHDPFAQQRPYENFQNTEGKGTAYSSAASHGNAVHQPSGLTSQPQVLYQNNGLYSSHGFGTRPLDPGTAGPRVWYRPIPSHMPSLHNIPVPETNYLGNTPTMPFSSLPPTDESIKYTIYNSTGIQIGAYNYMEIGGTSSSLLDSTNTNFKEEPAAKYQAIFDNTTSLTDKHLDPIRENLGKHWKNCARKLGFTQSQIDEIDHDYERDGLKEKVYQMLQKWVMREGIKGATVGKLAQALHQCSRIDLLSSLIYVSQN
Briefly: Selectivity interaction (KinomeScan (DiscoverX)) EUB0000229b RIPK1.

Chain of Tyrosine-protein kinase Lyn (P07948 2-512 limits assumed): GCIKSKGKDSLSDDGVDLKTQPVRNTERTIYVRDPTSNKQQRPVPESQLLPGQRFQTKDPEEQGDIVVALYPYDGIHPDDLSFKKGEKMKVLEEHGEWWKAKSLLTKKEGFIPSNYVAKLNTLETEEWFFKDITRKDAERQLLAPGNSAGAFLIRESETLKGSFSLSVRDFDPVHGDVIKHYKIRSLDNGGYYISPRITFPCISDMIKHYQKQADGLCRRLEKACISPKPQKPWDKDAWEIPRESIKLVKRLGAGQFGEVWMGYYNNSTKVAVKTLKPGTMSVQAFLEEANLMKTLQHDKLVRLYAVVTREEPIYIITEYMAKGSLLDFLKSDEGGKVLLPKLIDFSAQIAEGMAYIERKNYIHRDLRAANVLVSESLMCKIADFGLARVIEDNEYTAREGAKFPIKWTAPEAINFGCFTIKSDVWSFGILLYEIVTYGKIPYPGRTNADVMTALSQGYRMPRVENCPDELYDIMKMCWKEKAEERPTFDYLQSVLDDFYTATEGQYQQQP

Regarding `Cc1cc([C@@H](C)Nc2ccccc2C(=O)O)c2nc(N3CCOCC3)cc(=O)n2c1` [AZD-6482], in assay [1], the % of control worked out at 100%. `O=C(NOC[C@H](O)CO)c1ccc(F)c(F)c1Nc1ccc(I)cc1F`: the % of control in assay [2] was 79%. In turn, `Cn1cc(-n2cnc3c(NCc4nc5cc(Cl)c(Cl)cc5[nH]4)nc(N4CCOCC4)nc32)cn1` displayed a % of control in assay [3] of 8.19%. In the case of `COc1cc(N(C)c2ccnc3ccc(C(F)(F)F)cc23)cc(OC)c1OC`, the % binding in assay [4] was 98%.
